Data: ChEMBL document CHEMBL6134818, “Development of 3-arylaminothiophenic-2-carboxylic acid derivatives as new FTO inhibitors showing potent antileukemia activities” (Eur J Med Chem, 2025)

Key:
[1] = tested on: NB-4; assay: Anti-proliferative activity against human NB4 cells assessed as inhibition of cell viability incubated for 72 hrs by CCK8 assay; format: functional, cell-based; details: NB-4, 72 h
[2] = tested on: MOLM-13; assay: Anti-proliferative activity against human MOLM-13 cells assessed as inhibition of cell viability incubated for 72 hrs by CCK8 assay; format: functional, cell-based; details: MOLM-13, 72 h
[3] = biological target: Alpha-ketoglutarate-dependent dioxygenase FTO (Homo sapiens, UniProt Q9C0B1); assay: Inhibition of N-terminal truncated FTO demethylation (unknown origin) using 5'-ATTGCCATTCTCGATAGG(dm6A)TCCGGTCAAACCTAGACGAA-3' ssDNA template incubated for 2 hrs by PAGE-based assay
Sequence of Alpha-ketoglutarate-dependent dioxygenase FTO (Q9C0B1 whole entry, the tested form may be a part): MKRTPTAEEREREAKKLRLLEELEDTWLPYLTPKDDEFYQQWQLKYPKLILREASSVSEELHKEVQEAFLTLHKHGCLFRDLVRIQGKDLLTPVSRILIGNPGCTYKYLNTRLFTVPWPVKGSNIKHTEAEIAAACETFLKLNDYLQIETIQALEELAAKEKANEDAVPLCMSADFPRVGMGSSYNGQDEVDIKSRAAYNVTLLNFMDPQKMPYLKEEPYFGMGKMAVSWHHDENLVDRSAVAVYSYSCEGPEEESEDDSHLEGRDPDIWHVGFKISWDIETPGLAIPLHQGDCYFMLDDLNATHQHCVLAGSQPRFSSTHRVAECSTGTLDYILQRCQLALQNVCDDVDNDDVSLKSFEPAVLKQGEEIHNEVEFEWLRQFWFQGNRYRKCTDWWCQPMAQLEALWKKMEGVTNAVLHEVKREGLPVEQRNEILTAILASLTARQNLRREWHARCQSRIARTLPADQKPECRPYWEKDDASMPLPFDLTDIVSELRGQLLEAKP

IC50 [2] | IC50 [3] | SMILES | IC50 [1]
300 nM |  | Cc1n[nH]c(C)c1-c1cc(C2CC2)c(Nc2ccsc2C(=O)NO)c(C2CC2)c1 | 300 nM
 | 270 nM | Cc1n[nH]c(C)c1-c1cc(C2CC2)c(Nc2ccsc2C(=O)NC#N)c(C2CC2)c1 | 
 | 680 nM | Cc1n[nH]c(C)c1-c1cc(Cl)c(Nc2ccsc2C(=O)O)c(Cl)c1 | 
